Each structure is given as a SMILES string. pIC50: −log10 of the molar value.

This experiment addresses T1, human FSH receptor (Homo sapiens, UniProt P23945).
T1 construct: expressed in transfected cells; host or cells: CHO cells (hFSHR clone 16)
T1 sequence (P23945 18-695): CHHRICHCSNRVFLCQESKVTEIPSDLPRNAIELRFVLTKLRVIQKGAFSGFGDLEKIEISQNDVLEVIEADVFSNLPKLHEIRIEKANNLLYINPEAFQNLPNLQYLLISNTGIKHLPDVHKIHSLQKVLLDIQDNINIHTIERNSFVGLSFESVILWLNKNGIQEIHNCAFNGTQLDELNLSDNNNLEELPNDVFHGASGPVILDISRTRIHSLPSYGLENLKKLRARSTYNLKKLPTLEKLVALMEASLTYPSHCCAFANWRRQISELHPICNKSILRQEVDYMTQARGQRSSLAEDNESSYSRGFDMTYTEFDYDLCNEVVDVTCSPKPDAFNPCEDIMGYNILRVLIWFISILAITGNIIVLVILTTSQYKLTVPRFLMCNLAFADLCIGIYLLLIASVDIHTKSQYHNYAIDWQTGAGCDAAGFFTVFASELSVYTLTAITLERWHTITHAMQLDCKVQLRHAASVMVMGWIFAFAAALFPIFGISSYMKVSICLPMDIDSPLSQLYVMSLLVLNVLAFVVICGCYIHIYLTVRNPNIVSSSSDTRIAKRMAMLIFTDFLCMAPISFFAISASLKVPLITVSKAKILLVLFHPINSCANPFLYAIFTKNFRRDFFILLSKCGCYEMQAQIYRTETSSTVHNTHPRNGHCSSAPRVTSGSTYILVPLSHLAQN
Put plainly: HTRF assay for measuring cAMP in cells (FSH-antagonistic effect). The format is cell-based. The note with it: hFSHR clone 16 cells (CHO cells stably transfected with the human FSH receptor), in the presence of 1e-9 mol/l hFSH, 37° C. for 2 h. On the procedure: HTRF Assay for Measuring cAMP in Cells
The method is based on a competitive immunoassay between native cAMP, which has been produced by the cells, and cAMP which is labelled with cAMPD2 conjugate. The tracer binding was visualized by a monoclonal antibody, anti-cAMP labelled with cryptate [HTRF=homogeneous time-resolved fluorescence].
The specific signal is inversely proportional to the cAMP concentration of the samples employed.
The 665 nm/620 nm fluorescence ratio was evaluated.
Materials used: 96-well plates for the tissue culture, 96-well plates with black edge and black base (e.g. Fluotrac 600 from Greiner), 96-well plates for the substance dilutions of polypropylene and cAMP Femtomolar (4000 wells Kit, CIS Bio International # 62AM5PEJ).
Reagent used: BSA (bovine serum albumin) Fraction V protease-free, IBMX (3-isobutyl-1-methylxanthine), hFSH (human follicle stimulating hormone), Triton X-100 analytical grade, potassium fluoride analytical grade, G 418 (Geneticin) and Accutase.
Buffer 1 (washing and testing buffer) contained PBS, 1 mM CaCl2, 1 mM MgCl2, 0.2% glucose; 0.1% BSA, 1 mM IBMX.
Buffer 2 (2× lysis buffer) contained 1% Triton X-100 in PBS (without CaCl2 and MgCl2).
Buffer 3 (assay buffer) contained 50 mM potassium phosphate buffer (pH 7.0); 800 mM potassium fluoride; 0.2% BSA (always added fresh).
On day 1, the cells were seeded in 96-well plates (3×10^4 cells per well hFSHR clone 16 cells (CHO cells stably transfected with the human FSH receptor in 150 μl of medium). The next day, test substance dilutions were made up. For this purpose, all the substances were diluted in ice-cold buffer 1 (with or without hFSH), and the substance dilutions were placed on ice until applied to the cells. The cell supernatant was then aspirated off, and the cells were washed 2× with 200 μl of buffer 1. The cells were treated with 60 μl of the appropriate substance concentrations at 37° C. for 2 h. The cells were then lysed with 60 μl of buffer 2 (put onto the supernatant) (on a plate shaker at RT for 30 min). The test conjugates (cAMP-D2 and anti-cAMP cryptate, CIS Bio) were diluted in buffer 3 in accordance with the manufacturers' information. The actual mixture for measurement was pipetted into a black 96-well plate (in each case 15 μl of the cell lysate diluted with 35 μl of buffer 1; firstly 25 μl of cAMP-D2 conjugate were pipetted and, after 10 min, 25 μl of the anti-cAMP cryptate were added). This is followed by incubation at RT for 90 minutes. The measurement was carried out in a PheraStar (BMG).
Dose-effect curve (hFSH) for the human receptor: 1e-8, 3e-9, 1e-9, 3e-10, 1e-10, 3e-11, 1e-11, 3e-12 mol/l.
The test substances were employed in suitable dilutions in the absence (test for agonism) and in the presence of 1e-9 mol/l hFSH.
The values of the well ratio were averaged and then entered directly in SigmaPlot versus the concentrations. The maximum and minimum values were determined for each plate, and half the difference is to be regarded as IC50.
Background: In TR-FRET formats the signal depends on donor and acceptor labels being close together.
As to `CC(C)Oc1ccc(C#Cc2ccc(N3CCNCC3)cc2)cc1C(=O)N[C@@H](CO)Cc1c[nH]c2ccccc12` [Example 140, N-[(R)-1-Hydroxymethyl-2-(1H-indol-3-yl)-ethyl]-2-isopropoxy-5-(4-piperazin-1-yl-phenylethynyl)-benzamide], the pIC50 is 5.46. To `CC(C)Oc1ccc(C#Cc2cccc(CN3CCNCC3)c2)cc1C(=O)N[C@@H](CO)Cc1c[nH]c2ccccc12` [Example 141, N-[(R)-1-Hydroxymethyl-2-(1H-indol-3-yl)-ethyl]-2-isopropoxy-5-(3-piperazin-1-ylmethyl-phenylethynyl)-benzamide] belongs 5.70; to `CC(C)Oc1ccc(C#Cc2ccc(OCCN(C)C)cc2)cc1C(=O)N[C@@H](CO)Cc1c[nH]c2ccccc12` [Example 103, 5-[4-(2-Dimethylamino-ethoxy)-phenylethynyl]-N-[(R)-1-hydroxymethyl-2-(1H-indol-3-yl)-ethyl]-2-isopropoxy-benzamide], 5.89; to `CC(C)Oc1ccc(C#Cc2ccc(-c3ccccc3)cc2)cc1C(=O)N[C@@H](CO)Cc1c[nH]c2ccccc12` [Example 111, 5-Biphenyl-4-ylethynyl-N-[(R)-1-hydroxymethyl-2-(1H-indol-3-yl)-ethyl]-2-isopropoxy-benzamide], 5.70. Take `COC(=O)CCNC(=O)c1cccc(C#Cc2ccc(OC(C)C)c(C(=O)N[C@@H](CO)Cc3c[nH]c4ccccc34)c2)c1` [Example 165, 3-(3-{3-[(R)-1-Hydroxymethyl-2-(1H-indol-3-yl)-ethylcarbamoyl]-4-isopropoxy-phenylethynyl}-benzoylamino)-propionic acid methyl ester]: the negative logarithm of the IC50 (pIC50) is 7.82. To `CC(C)Oc1ccc(C#Cc2ccc(C(=O)NCCN3CCNC(=O)C3)cc2)cc1C(=O)N[C@@H](CO)Cc1c[nH]c2ccccc12` [Example 173, N-[(R)-1-Hydroxymethyl-2-(1H-indol-3-yl)-ethyl]-2-isopropoxy-5-{4-[2-(3-oxo-piperazin-1-yl)-ethylcarbamoyl]-phenylethynyl}-benzamide] belongs 7.46; to `CC(C)Oc1ccc(C#Cc2ccccc2C(F)(F)F)cc1C(=O)N[C@@H](CO)Cc1c[nH]c2ccccc12` [Example 119, N-[(R)-2-Hydroxy-1-(1H-indol-3-ylmethyl)-ethyl]-2-isopropoxy-5-(2-trifluoromethyl-phenylethynyl)-benzamide], 7.60; to `CC(C)Oc1ccc(C#Cc2cncc(C3=NNC(=O)C3)c2)cc1C(=O)N[C@@H](CO)Cc1c[nH]c2ccccc12` [Example 66, N—[(R)-1-Hydroxymethyl-2-(1H-indol-3-yl)-ethyl]-2-isopropoxy-5-[5-(5-oxo-4,5-dihydro-1H-pyrazol-3-yl)-pyridin-3-ylethynyl]-benzamide], 8.00. To `CC(C)Oc1ccc(C#Cc2ccc(N3CCCC3=O)cc2)cc1C(=O)N[C@@H](CO)Cc1c[nH]c2ccccc12` [Example 124, N-[(R)-1-Hydroxymethyl-2-(1H-indol-3-yl)-ethyl]-2-isopropoxy-5-[4-(2-oxo-pyrrolidin-1-yl)-phenylethynyl]-benzamide] belongs 7.10; to `CC(C)Oc1ccc(C#Cc2ccc(C#N)cc2)cc1C(=O)N[C@@H](CO)Cc1c[nH]c2ccccc12` [Example 110, 5-(4-Cyano-phenylethynyl)-N-[(R)-1-hydroxymethyl-2-(1H-indol-3-yl)-ethyl]-2-isopropoxy-benzamide], 6.46. `Cc1ccc(C)c(C#Cc2ccc(OC(C)C)c(C(=O)N[C@@H](CO)Cc3c[nH]c4ccccc34)c2)c1` [Example 48, 5-(2,5-Dimethyl-phenylethynyl)-N-[(R)-1-hydroxymethyl-2-(1H-indol-3-yl)-ethyl]-2-isopropoxy-benzamide]: the negative logarithm of the IC50 (pIC50) was 7.52. Then `CC(C)Oc1ccc(C#Cc2ccc3ccccc3c2)cc1C(=O)N[C@@H](CO)Cc1c[nH]c2ccccc12` [Example 52, N-[(R)-1-Hydroxymethyl-2-(1H-indol-3-yl)-ethyl]-2-isopropoxy-5-naphthalen-2-ylethynyl-benzamide], with 7.10; and `COc1ccc(C#Cc2ccc(OC(C)C)c(C(=O)N[C@@H](CO)Cc3c[nH]c4ccccc34)c2)cc1F` [Example 30, 5-(3-Fluoro-4-methoxy-phenylethynyl)-N-[(R)-2-hydroxy-1-(1H-indol-3-ylmethyl)-ethyl]-2-isopropoxy-benzamide], with 6.82; and `CC(C)Oc1ccc(C#Cc2cccc(-c3nnn[nH]3)c2)cc1C(=O)N[C@@H](CO)Cc1c[nH]c2ccccc12` [Example 148, N-[(R)-2-Hydroxy-1-(1H-indol-3-ylmethyl)-ethyl]-2-isopropoxy-5-[3-(1H-tetrazol-5-yl)-phenylethynyl]-benzamide], with 7.52. `CNC(=O)c1ccc(C#Cc2cccc(C(=O)N[C@@H](CO)Cc3c[nH]c4ccccc34)c2)cc1` [Example 72, N-[(R)-1-Hydroxymethyl-2-(1H-indol-3-yl)-ethyl]-5-(4-methylcarbamoyl-phenylethynyl)-benzamide]: the pIC50 was 5.60. For `CC(C)Oc1ccc(C#Cc2ccc3c(c2)C(=O)NC3)cc1C(=O)N[C@@H](CO)Cc1c[nH]c2ccccc12` [Example 155, N-[(R)-1-Hydroxymethyl-2-(1H-indol-3-yl)-ethyl]-2-isopropoxy-5-(3-oxo-2,3-dihydro-1H-isoindol-5-ylethynyl)-benzamide], the negative logarithm of the IC50 (pIC50) was 7.82. In the case of `CC(C)Oc1ccc(C#Cc2cnc(N3CCOCC3)nc2)cc1C(=O)N[C@@H](CO)Cc1c[nH]c2ccccc12` [Example 145, N-[(R)-1-Hydroxymethyl-2-(1H-indol-3-yl)-ethyl]-2-isopropoxy-5-(2-morpholin-4-yl-pyrimidin-5-ylethynyl)-benzamide], the pIC50 was 6.52. To `Cc1cc(C)cc(C#Cc2ccc(OC(C)C)c(C(=O)N[C@@H](CO)Cc3c[nH]c4ccccc34)c2)c1` [Example 40, 5-(3,5-Dimethyl-phenylethynyl)-N-[(R)-1-hydroxymethyl-2-(1H-indol-3-yl)-ethyl]-2-isopropoxy-benzamide] belongs 6.30; to `CC(C)Oc1ccc(C#Cc2ccc(C(=O)NCCC(N)=O)cc2)cc1C(=O)N[C@@H](CO)Cc1c[nH]c2ccccc12` [Example 177, 5-[4-(2-Carbamoyl-ethylcarbamoyl)-phenylethynyl]-N-[(R)-1-hydroxymethyl-2-(1H-indol-3-yl)-ethyl]-2-isopropoxy-benzamide], 7.70. With `Cc1ccc(C#Cc2ccc(OC(C)C)c(C(=O)N[C@@H](CO)Cc3c[nH]c4ccccc34)c2)nc1` [Example 94, N-[(R)-1-Hydroxymethyl-2-(1H-indol-3-yl)-ethyl]-2-isopropoxy-5-(5-methyl-pyridin-2-ylethynyl)-benzamide], the pIC50 is 7.10.

Take `CNC(=O)CCCc1ccc(C#Cc2ccc(OC(C)C)c(C(=O)N[C@@H](CO)Cc3c[nH]c4ccccc34)c2)cc1` [Example 70, N-[(R)-1-Hydroxymethyl-2-(1H-indol-3-yl)-ethyl]-2-isopropoxy-5-[4-(3-methylcarbamoyl-propyl)-phenylethynyl]-benzamide]: the pIC50 is 7.35.

The pIC50 is the negative decadic logarithm of the IC50, by convention in mol/L.
